Non-standard residues stand in square brackets, D forms with d. Residues, ends and D or L forms follow the SMILES beside them. *: point of attachment. Desaminotyrosyl = O=C(CCc1ccc(O)cc1)*; NMeY = CN[C@@H](Cc1ccc(O)cc1)C(=O)O; Agmatine = N=C(N)NCCCCN*; Nle = CCCC[C@H](N)C(=O)O; Orn = NCCC[C@H](N)C(=O)O; Abu = CC[C@H](N)C(=O)O; GABA = NCCCC(=O)O
Assays:
[1] = biological target: T1, GHRH receptor (human pituitary membrane homogenates) (Homo sapiens, UniProt Q02643); test: GHRH receptor binding, ligand competition with 125I-labeled JV-1-42 (Table 5); conditions: for Relative affinitiy (Binding potency) vs GHRH: GHRH(1-29) = 1; for Relative affinitiy (Binding potency) vs JI-38: JI-38 = 1
T1 sequence (Q02643 23-423): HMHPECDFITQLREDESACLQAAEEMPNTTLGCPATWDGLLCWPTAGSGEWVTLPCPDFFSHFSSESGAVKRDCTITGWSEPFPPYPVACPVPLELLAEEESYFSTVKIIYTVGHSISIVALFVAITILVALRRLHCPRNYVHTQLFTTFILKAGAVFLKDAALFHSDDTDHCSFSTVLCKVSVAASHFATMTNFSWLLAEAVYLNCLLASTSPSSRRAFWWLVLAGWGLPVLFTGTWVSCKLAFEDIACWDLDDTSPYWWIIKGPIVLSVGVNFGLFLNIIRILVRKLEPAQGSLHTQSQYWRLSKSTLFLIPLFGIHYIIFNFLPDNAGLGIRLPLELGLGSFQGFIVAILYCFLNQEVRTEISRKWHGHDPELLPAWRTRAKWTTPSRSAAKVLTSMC
Source text: Normal human pituitaries were purchased from the National Hormone and Peptide Program (A. F. Parlow, Los Angeles, County Harbor-UCLA Medical Center, Torrance, Calif.).

[2] = biological target: T1, GHRH receptor (human pituitary membrane homogenates); test: GHRH receptor binding, ligand competition with 125I-labeled [His1,Nle27]hGHRH(1-32)NH2 (Table 6); conditions: GHRH(1-29) = 1
[3] = tested on: GH level; test: In vivo endocrine activity (GH release), subcutaneous administration; conditions: rat, s.c.
Method: Subcutaneous Administration. Adult male rats were used and anesthetized with pentobarbital (6 mg/100 g, b.w.), by i.p. injection. […] Blood samples were taken from the jugular vein 5, 15 and/or 30 minutes after the injection. The blood samples were centrifuged, plasma was removed and the GH level was measured by ELISA. The results are summarized in terms of potency in Table 9.

[4] = biological target: T1, GHRH receptor (human pituitary membrane homogenates); test: GHRH receptor binding, ligand competition with 125I-labeled JV-1-42 (Table 7); design: Normal human pituitaries were purchased from the National Hormone and Peptide Program; tissue National Hormone and Peptide Program (A. F. Parlow, Harbor-UCLA Medical Center, Torrance, Calif.); host or cells: normal human pituitary, membrane fraction / homogenate; conditions: JI-38 = 1
[5] = tested on: rat pituitary cells; test: GH release in superfused rat pituitary cell system; format: cell-based; conditions: 1 nM; for GH Response (ng/ml) Average / GH Response (ng/ml) 1 / GH Response (ng/ml) 2 / GH Response (ng/ml) 3: 3-min pulse; for GH Response (ng/ml) Average: average of runs; for GH Response (ng/ml) 1: run 1; for GH Response (ng/ml) 2: run 2; for GH Response (ng/ml) 3: run 3
Method: Growth hormone releasing activity. Growth hormone releasing was assayed by using a superfused rat pituitary cell system as described in S. Vigh and A. V. Schally, Peptides 5, Suppl: 241-347, 1984. The new synthetic peptide analog of hGHRH P20356 and JI-38 (as control) were administered for 3 minutes (1 mL perfusate) at 1 nM concentration as shown below. Fractions of 1 ml are collected and the GH content in each was determined by ELISA.
Pituitary cells from 2 male rats were used for each channel of the superfusion system. The cells were exposed to 3-min pulses of the new GHRH agonists or to JI-38 as standard every 30 min. Outflowing samples of each channel (1 ml) were collected every 3 min, and GH levels were determined by ELISA.

[6] = fraction 1 (P-20356) / 21 (JI-38)
[7] = fraction 2 (P-20356) / 22 (JI-38)
[8] = fraction 3 (P-20356) / 23 (JI-38)
[9] = fraction 4 (P-20356) / 24 (JI-38)
[10] = fraction 5 (P-20356) / 25 (JI-38)

CC[C@H](C)[C@H](NC(=O)[C@H](C)NC(=O)[C@H](CC(=O)O)NC(=O)[C@H](C)NC(=O)[C@@H](N)Cc1ccc(O)cc1)C(=O)N[C@@H](Cc1ccccc1)C(=O)N[C@H](C(=O)N[C@@H](CC(N)=O)C(=O)N[C@@H](CO)C(=O)N[C@@H](Cc1ccc(O)cc1)C(=O)N[C@@H](CCCNC(=N)N)C(=O)N[C@@H](CCCCN)C(=O)N[C@H](C(=O)N[C@@H](CC(C)C)C(=O)NCC(=O)N[C@@H](CCC(N)=O)C(=O)N[C@@H](CC(C)C)C(=O)N[C@@H](CO)C(=O)N[C@@H](C)C(=O)N[C@@H](CCCNC(=N)N)C(=O)N[C@@H](CCCCN)C(=O)N[C@@H](CC(C)C)C(=O)N[C@@H](CC(C)C)C(=O)N[C@@H](CCC(N)=O)C(=O)N[C@@H](CC(=O)O)C(=O)N[C@H](C(=O)N[C@@H](CCSC)C(=O)N[C@@H](CO)C(=O)N[C@@H](CCCNC(=N)N)C(N)=O)[C@@H](C)CC)C(C)C)[C@@H](C)O [GHRH(1-29), hGHRH(1-29)NH2, reference compound]
Relative affinitiy (Binding potency) vs GHRH [1]: 1
Relative affinitiy (Binding potency) vs GHRH [2]: 1

CCCC[C@H](NC(=O)[C@@H](NC(=O)[C@H](CC(=O)O)NC(=O)[C@H](CCC(N)=O)NC(=O)[C@H](CC(C)C)NC(=O)[C@H](CC(C)C)NC(=O)[C@H](CCCN)NC(=O)[C@H](CCCNC(=N)N)NC(=O)[C@H](C)NC(=O)[C@H](CO)NC(=O)[C@H](CC(C)C)NC(=O)[C@H](CCC(N)=O)NC(=O)[C@H](CC)NC(=O)[C@H](CC(C)C)NC(=O)[C@@H](NC(=O)[C@H](CCCN)NC(=O)[C@H](CCCNC(=N)N)NC(=O)[C@H](Cc1ccc(O)cc1)NC(=O)[C@H](CO)NC(=O)[C@H](CCC(N)=O)NC(=O)[C@@H](NC(=O)[C@H](Cc1ccccc1)NC(=O)[C@@H](NC(=O)[C@H](C)NC(=O)[C@H](CC(=O)O)NC(=O)[C@@H](C)NC(=O)CCc1ccc(O)cc1)[C@@H](C)CC)[C@@H](C)O)C(C)C)[C@@H](C)CC)C(=O)N[C@@H](CC(=O)O)C(=O)NCCCCNC(=N)N [Peptide P-20350, [Dat^1, D-Ala^2, Gln^8, Orn^12, Abu^15, Orn^21, Nle^27, Asp^28, Agm^29]hGHRH(1-29)] (Desaminotyrosyl-[dA]DAIFTQSYR[Orn]VL[Abu]QLSAR[Orn]LLQDI[Nle]D-Agmatine)
Stimulation of growth hormone levels after s.c. administration (comparison in words) [3]: stimulated greater growth hormone levels than hGHRH or JI-38
Relative affinitiy (Binding potency) vs GHRH [1]: 101.5
Relative affinitiy (Binding potency) vs JI-38 [1]: 42.7
Relative affinitiy (Binding potency) vs JI-38 [4]: 8.37

CCCC[C@H](NC(=O)[C@@H](NC(=O)[C@H](CC(=O)O)NC(=O)[C@H](CCC(N)=O)NC(=O)[C@H](CC(C)C)NC(=O)[C@H](CC(C)C)NC(=O)[C@H](CCCN)NC(=O)[C@H](CCCNC(=N)N)NC(=O)[C@H](C)NC(=O)[C@H](CO)NC(=O)[C@H](CC(C)C)NC(=O)[C@H](CCC(N)=O)NC(=O)[C@H](CC)NC(=O)[C@H](CC(C)C)NC(=O)[C@@H](NC(=O)[C@H](CCCN)NC(=O)[C@H](CCCNC(=N)N)NC(=O)[C@H](Cc1ccc(O)cc1)NC(=O)[C@H](CO)NC(=O)[C@H](CCC(N)=O)NC(=O)[C@@H](NC(=O)[C@H](Cc1ccccc1)NC(=O)[C@@H](NC(=O)[C@H](C)NC(=O)[C@H](CC(=O)O)NC(=O)[C@H](C)NC(=O)[C@H](Cc1ccc(O)cc1)NC)[C@@H](C)CC)[C@@H](C)O)C(C)C)[C@@H](C)CC)C(=O)N[C@@H](CC(=O)O)C(=O)NCCCCNC(=N)N [Peptide P-20356, [N—Me-Tyr^1, Gln^8, Orn^12, Abu^15, Orn^21, Nle^27, Asp^28, Agm^29]hGHRH(1-29)] (H-[NMeY]ADAIFTQSYR[Orn]VL[Abu]QLSAR[Orn]LLQDI[Nle]D-Agmatine)
GH Response (ng/ml) Average [5, 6]: 52.45 ng/mL
GH Response (ng/ml) Average [5, 7]: 337.48 ng/mL
GH Response (ng/ml) Average [5, 8]: 556.46 ng/mL
GH Response (ng/ml) Average [5, 9]: 334.99 ng/mL
GH Response (ng/ml) Average [5, 10]: 197.91 ng/mL
GH Response (ng/ml) 1 [5, 6]: 49.98 ng/mL
GH Response (ng/ml) 1 [5, 7]: 310.58 ng/mL
GH Response (ng/ml) 1 [5, 8]: 491.01 ng/mL
GH Response (ng/ml) 1 [5, 9]: 399.95 ng/mL
GH Response (ng/ml) 1 [5, 10]: 200.64 ng/mL
GH Response (ng/ml) 2 [5, 6]: 54.99 ng/mL
GH Response (ng/ml) 2 [5, 7]: 325.76 ng/mL
GH Response (ng/ml) 2 [5, 8]: 602.1 ng/mL
GH Response (ng/ml) 2 [5, 9]: 270.02 ng/mL
GH Response (ng/ml) 2 [5, 10]: 195.18 ng/mL
GH Response (ng/ml) 3 ([5]; fraction 1): 52.37 ng/mL
GH Response (ng/ml) 3 ([5]; fraction 2): 376.11 ng/mL
GH Response (ng/ml) 3 ([5]; fraction 3): 576.26 ng/mL
GH-releasing potency in vitro relative to JI-38 ([5]; superfused rat pituitary cells): about 3 times
Stimulation of growth hormone levels after s.c. administration (comparison in words) [3]: stimulated greater growth hormone levels than hGHRH or JI-38
Relative affinitiy (Binding potency) vs GHRH [1]: 406.0
Relative affinitiy (Binding potency) vs JI-38 [1]: 171
Relative affinitiy (Binding potency) vs JI-38 [4]: 16.11

CCCC[C@H](NC(=O)[C@@H](NC(=O)[C@H](CC(=O)O)NC(=O)[C@H](CCC(N)=O)NC(=O)[C@H](CC(C)C)NC(=O)[C@H](CC(C)C)NC(=O)[C@H](CCCN)NC(=O)[C@H](CCCNC(=N)N)NC(=O)[C@H](C)NC(=O)[C@H](CO)NC(=O)[C@H](CC(C)C)NC(=O)[C@H](CCC(N)=O)NC(=O)[C@H](CC)NC(=O)[C@H](CC(C)C)NC(=O)[C@@H](NC(=O)[C@H](CCCN)NC(=O)[C@H](CCCNC(=N)N)NC(=O)[C@H](Cc1ccc(O)cc1)NC(=O)[C@H](CO)NC(=O)[C@H](CC(N)=O)NC(=O)[C@@H](NC(=O)[C@H](Cc1ccccc1)NC(=O)[C@@H](NC(=O)[C@H](C)NC(=O)[C@H](CC(=O)O)NC(=O)[C@@H](C)NC(=O)CCc1ccc(O)cc1)[C@@H](C)CC)[C@@H](C)O)C(C)C)[C@@H](C)CC)C(=O)N[C@@H](CO)C(=O)N[C@@H](CCCNC(=N)N)C(=O)N[C@@H](CCC(N)=O)C(=O)NCCCC(N)=O [Peptide P-29702, [Dat^1, D-Ala^2, Orn^12, Abu^15, Orn^21, Nle^27, Gln-Gab^30]hGHRH(1-30)NH2] (Desaminotyrosyl-[dA]DAIFTNSYR[Orn]VL[Abu]QLSAR[Orn]LLQDI[Nle]SRQ[GABA]-NH2)
Relative affinitiy (Binding potency) vs GHRH [1]: 81.2
Relative affinitiy (Binding potency) vs JI-38 [1]: 34.2
Relative affinitiy (Binding potency) vs JI-38 [4]: 5.06
